Reference: patent publication US12594264B2, “Modulators of alpha-synuclein proteolysis and associated methods of use” (Arvinas Operations, Inc., priority 2018, dated 2026)
Where a name gives a salt, the structure may show the parent alone.

How the values were obtained:
[1] = test system: PFF induced HEK293 TREX α-syn A53T cells; experiment: Cytotoxicity by visual inspection of treated cells; format: cell-based, human; details: 1 μM
Description: (§1) Targeted degradation of sarkosyl insoluble (SI) α-synuclein via exemplary bifunctional compounds was assessed by MJFF-14-6-4-2 conformation specific ELISA following treatment of PFF induced A53T α-synuclein overexpressing HEK293 cells with 1 μM exemplary compound compared to DMSO vehicle control. Degradation activity of the exemplary compounds of Table 2 is expressed as % DMSO control. […] However, the effect of bifunctional targeting degraders, shown in FIG. 5, required the intact E3 ligase binding domain.
(§2) Trex293 (doxycycline inducible) cells stably expressing human α-SYN A53T (monoclonal) were plated in poly-d-lysine coated T-75 tissue culture flasks (4.5×10e6 cells/flask) in DMEM with 10% tet-free FBS, 10 μg/ml blasticidin, and 400 μg/ml zeocin. After an overnight incubation, the cells were induced to express α-SYN by treatment with 1 μg/ml doxycycline (Dox) and exemplary bifunctional compound. After a 24 hour dox induction, the medium on the cells was changed to Opti-MEM followed by treatment with α-SYN pre-formed fibrils** (PFFs)(5 μg/flask) pre-complexed with Lipofectamine 2000 transfection reagent for 4 hours. After PFF treatment, the medium was changed back to DMEM with the supplements described above and exemplary bifunctional compound for 48 hours.
To assess targeted degradation of sarkosyl insoluble α-synuclein, exemplary bifunctional compounds designed to bind to oligomeric α-synuclein were tested at 1 μM in PFF induced HEK293 TREX α-syn A53T cells.

[2] = biological target: T1, sarkosyl insoluble (SI) α-synuclein (human α-SYN A53T) (Homo sapiens, UniProt P37840, A53T); experiment: MJFF-14-6-4-2 conformation specific ELISA of sarkosyl insoluble α-synuclein after compound treatment; format: cell-based; details: 1 μM compound; protein remaining relative to DMSO control; PFF induced A53T α-synuclein overexpressing HEK293 cells; read-out: Protein Degradation at 1 μM
T1 construct: expressed in transfected cells
Description: as §1, §2
Cell pellets were harvested from each flask using 0.25% trypsin followed by spinning at 500×g for 5 minutes. Each pellet was resuspended in 1 ml cold buffer H [Buffer H-10 mM Tris, 1 mM EGTA, 0.8M NaCl, 10% sucrose, pH7.4 containing 1× protease and phosphatase inhibitors] containing protease and phosphatase inhibitors. The resuspended pellets were incubated on ice for 20 minutes followed by centrifugation at 27,200×g for 20 minutes at 4° C. The supernatants were adjusted to 1% sarkosyl (Sigma) and 1% 2-mercaptoethanol followed by incubation for 1 hour at 37° C. on an orbital shaker set to 400 rpm. The samples were then spun at 150,000×g for 35 minutes at room temperature. The supernatant was removed and saved as the soluble fraction and the insoluble pellet was resuspended in 25 μl tris-buffered saline (TBS). Protein concentrations were determined by NanoDrop, and normalized protein concentrations were analyzed by WES capillary electrophoresis as well as an α-SYN oligomer ELISA.
Recombinant human α-SYN was purchased from Proteos. 1 mg aliquots were supplied at 10 mg/ml in 10 mM Tris, 50 mM NaCl, pH7.6. The aliquot was thawed on ice followed by centrifugation at 4° C. for 10 minutes at 12,000×g to pellet any insoluble material. The supernatant was removed and quantitated on a NanoDrop (A280) using Beer's Law (ε=5960 M-1 cm-1). The concentration was adjusted to 5 mg/ml in PBS followed by vortexing for 3 seconds to mix contents. The mixture was incubated in an orbital shaker set to 37° C. at 1,000 rpm for 7 days followed by aliquoting into individual use vials. Prior to addition to cells, an aliquot was thawed at room temperature, then diluted to 1 mg/ml with phosphate-buffered saline (PBS) followed by sonication for 1 minute with a probe sonicator (output 1; 90% duty cycle) in a chem hood.
Coming Costar high bind black well plates were coated with MJFR 14-6-4-2 (Abcam) at 1 μg/ml for 1 hour at 37° C. followed by washing with 1×TBS+0.1% tween-20 (TBS-T) then blocking with 3% bovine serum albumin (BSA) in TBS. After re-washing, samples were added after dilution in diluent (1% BSA/TBS-T). Non-sonicated PFF was used to generate a standard curve. The plates were incubated with sample overnight at 4° C. with shaking. The following day alkaline phosphatase (AP) conjugated MJFR 14-6-4-2 was added to the plate without washing followed by incubation at room temperature for 1 hour with shaking or rocking. The plates were then re-washed and substrate (CDP star alkaline phosphatase detection reagent) was added followed by a 30 minute incubation at room temperature. The plate was read on a luminescence plate reader. The counts were log transformed and read off the standard curve. […]

Structure (SMILES)	Cytotoxicity at the concentration tested [1]	remaining activity at 1 µM [2] [%]	other results
Cc1ncsc1-c1ccc([C@H](C)NC(=O)[C@@H]2C[C@@H](O)CN2C(=O)[C@@H](NC(=O)COCCOCCOc2ccc(CN3C(=O)C(=CC=Cc4ccc([N+](=O)[O-])cc4)c4ccccc43)cc2)C(C)(C)C)cc1 (single isomer, unassigned) [Exemplary Compound 6]	without any visual impact to cell health		
CNc1ccc(-c2nc3ccc(OCCOCCOCCOCC(=O)N[C@H](C(=O)N4C[C@H](O)C[C@H]4C(=O)N[C@@H](C)c4ccc(-c5scnc5C)cc4)C(C)(C)C)cc3s2)cc1 [Exemplary Compound 2, (2S,4R)-1-((S)-2-(tert-butyl)-14-((2-(4-(methylamino)phenyl)benzo[d]thiazol-6-yl)oxy)-4-oxo-6,9,12-trioxa-3-azatetradecanoyl)-4-hydroxy-N—((S)-1-(4-(4-methylthiazol-5-yl)phenyl)ethyl)pyrrolidine-2-carboxamide]	without any visual impact to cell health	35 to 70	
CNc1ccc(-c2nc3ccc(OCCOCCOCCOCCOCCOCCOCC(=O)N[C@H](C(=O)N4C[C@H](O)C[C@H]4C(=O)N[C@@H](C)c4ccc(-c5scnc5C)cc4)C(C)(C)C)cc3s2)cc1 [Exemplary Compound 5, (2S,4R)-1-((S)-2-(tert-butyl)-23-((2-(4-(methylamino)phenyl)benzo[d]thiazol-6-yl)oxy)-4-oxo-6,9,12,15,18,21-hexaoxa-3-azatricosanoyl)-4-hydroxy-N-((S)-1-(4-(4-methylthiazol-5-yl)phenyl)ethyl)pyrrolidine-2-carboxamide]	without any visual impact to cell health	< 35	
Cc1ncsc1-c1ccc([C@H](C)NC(=O)[C@@H]2C[C@@H](O)CN2C(=O)[C@@H](NC(=O)COCCOCCOCCOc2ccc3c(c2)Sc2cc([N+](=O)[O-])ccc2N3)C(C)(C)C)cc1 [Exemplary Compound 9, (2S,4R)-1-((S)-2-(tert-butyl)-14-((7-nitro-10H-phenothiazin-3-yl)oxy)-4-oxo-6,9,12-trioxa-3-azatetradecanoyl)-4-hydroxy-N-((S)-1-(4-(4-methylthiazol-5-yl)phenyl)ethyl)pyrrolidine-2-carboxamide]	cytotoxicity	> 120	Cytotoxicity at the concentration tested ([1]; listed as 9): cytotoxic
Cc1ncsc1-c1ccc([C@H](C)NC(=O)[C@@H]2C[C@@H](O)CN2C(=O)[C@@H](NC(=O)COCCOCCOCCOCCOCCOCCOc2ccc3c(c2)Sc2cc([N+](=O)[O-])ccc2N3)C(C)(C)C)cc1 [Exemplary Compound 12, (2S,4R)-1-((S)-2-(tert-butyl)-23-((7-nitro-10H-phenothiazin-3-yl)oxy)-4-oxo-6,9,12,15,18,21-hexaoxa-3-azatricosanoyl)-4-hydroxy-N-((S)-1-(4-(4-methylthiazol-5-yl)phenyl)ethyl)pyrrolidine-2-carboxamide]	cytotoxicity	> 120	Cytotoxicity at the concentration tested ([1]; listed as 12): cytotoxic
O=C1CCC(N2C(=O)c3ccc(OCCOCCOCCOCCOc4ccc5c(c4)Sc4cc([N+](=O)[O-])ccc4N5)cc3C2=O)C(=O)N1 (stereo not shown) [Exemplary Compound 13, 2-(2,6-dioxo-3-piperidyl)-5-[2-[2-[2-[2-[(7-nitro-10H-phenothiazin-3-yl)oxy]ethoxy]ethoxy]ethoxy]ethoxy]isoindoline-1,3-dione]	cytotoxicity		Cytotoxicity at the concentration tested ([1]; listed as 13): cytotoxic
COc1ccc2nc(-c3ccc(N4CC(OC5CCN(CCCCCOc6ccc7c(c6)C(=O)N(C6CCC(=O)NC6=O)C7=O)CC5)C4)cc3)sc2c1 (stereo not shown) [Exemplary Compound 25, 2-(2,6-dioxopiperidin-3-yl)-5-([5-[4-([1-[4-(6-methoxy-1,3-benzothiazol-2-yl)phenyl]azetidin-3-yl]oxy)piperidin-1-yl]pentyl]oxy)-2,3-dihydro-1H-isoindole-1,3-dione]	cytotoxicity	> 120	Cytotoxicity at the concentration tested ([1]; listed as 25): cytotoxic
O=C1CCC(N2C(=O)c3ccc(N4CCN(CCCO[C@H]5C[C@H](Oc6ccc7c(c6)Sc6cc([N+](=O)[O-])ccc6N7)C5)CC4)cc3C2=O)C(=O)N1 (stereo partly shown) [Exemplary Compound 30, 2-(2,6-dioxo-3-piperidyl)-5-[4-[3-[3-[(7-nitro-10H-phenothiazin-3-yl)oxy]cyclobutoxy]propyl]piperazin-1-yl]isoindoline-1,3-dione formate]		35 to 70	
O=C1CCC(N2C(=O)c3ccc(OCCCCCN4CCC(O[C@H]5C[C@H](Oc6ccc(CN7C(=O)C(=CC=Cc8ccc([N+](=O)[O-])cc8)c8ccccc87)cc6)C5)CC4)cc3C2=O)C(=O)N1 (stereo partly shown) [Exemplary Compound 31, 2-(2,6-dioxopiperidin-3-yl)-5-((5-(4-((1r,3r)-3-(4-(((Z)-3-((E)-3-(4-nitrophenyl)allylidene)-2-oxoindolin-1-yl)methyl)phenoxy)cyclobutoxy)piperidin-1-yl)pentyl)oxy)isoindoline-1,3-dione]		70 to 120	
Cc1ncsc1-c1ccc([C@H](C)NC(=O)[C@@H]2C[C@@H](O)CN2C(=O)[C@@H](NC(=O)CN2CCN(CCN3CCC(O[C@H]4C[C@H](Oc5ccc6c(c5)Sc5cc([N+](=O)[O-])ccc5N6)C4)CC3)CC2)C(C)(C)C)cc1 [Exemplary Compound 34, (2S,4R)-1-((S)-3,3-dimethyl-2-(2-(4-(2-(4-((1r,3r)-3-((7-nitro-10H-phenothiazin-3-yl)oxy)cyclobutoxy)piperidin-1-yl)ethyl)piperazin-1-yl)acetamido)butanoyl)-4-hydroxy-N-((S)-1-(4-(4-methylthiazol-5-yl)phenyl)ethyl)pyrrolidine-2-carboxamide]		< 35	
COc1cc(/C=C/c2ccc3cc(OCCOCCOCCOCC(=O)N[C@H](C(=O)N4C[C@H](O)C[C@H]4C(=O)N[C@@H](C)c4ccc(-c5scnc5C)cc4)C(C)(C)C)ccc3n2)ccn1 [Exemplary Compound 35, (2S,4R)-1-((S)-2-(tert-butyl)-14-((2-((E)-2-(2-methoxypyridin-4-yl)vinyl)quinolin-6-yl)oxy)-4-oxo-6,9,12-trioxa-3-azatetradecanoyl)-4-hydroxy-N—((S)-1-(4-(4-methylthiazol-5-yl)phenyl)ethyl)pyrrolidine-2-carboxamide]		35 to 70	
COc1cc(/C=C/c2ccc3cc(OCCOCCOCCOCCOc4ccc5c(c4)C(=O)N(C4CCC(=O)NC4=O)C5=O)ccc3n2)ccn1 (stereo not shown) [Exemplary Compound 36, 2-(2,6-dioxo-3-piperidyl)-5-[2-[2-[2-[2-[[2-[(E)-2-(2-methoxy-4-pyridyl)vinyl]-6-quinolyl]oxy]ethoxy]ethoxy]ethoxy]ethoxy]isoindoline-1,3-dione]		> 120	
COc1cc(/C=C/c2ccc3cc(OCCOCCOCCOc4ccc5c(c4)C(=O)N(C4CCC(=O)NC4=O)C5=O)ccc3n2)ccn1 (stereo not shown) [Exemplary Compound 47, (E)-2-(2,6-dioxopiperidin-3-yl)-5-(2-(2-(2-((2-(2-(2-methoxypyridin-4-yl)vinyl)quinolin-6-yl)oxy)ethoxy)ethoxy)ethoxy)isoindoline-1,3-dione]		70 to 120	
